Measured values taken from PubChem BioAssay (NCI).
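Cultured in 96-well plates, cells were exposed to test compound for 48 hours across five concentrations. GI50 = concentration required for 50% inhibition of growth. TGI marks complete inhibition of growth.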

Columns and labels:
Assay in all cases: growth of human tumour cells (NCI), 48 h
HOP-62 NSCLC = system: HOP-62 NSCLC
MALME-3M melanoma = system: MALME-3M melanoma
RPMI-8226 leukemia = system: RPMI-8226 leukemia
SK-MEL-28 melanoma = system: SK-MEL-28 melanoma
SN12C renal = system: SN12C renal
SW-620 colon = system: SW-620 colon
TK-10 renal = system: TK-10 renal
UO-31 renal = system: UO-31 renal

| Structure (SMILES) | GI50 (HOP-62 NSCLC) [µM] | TGI (HOP-62 NSCLC) [µM] | GI50 (MALME-3M melanoma) [µM] | TGI (MALME-3M melanoma) [µM] | GI50 (RPMI-8226 leukemia) [µM] | TGI (RPMI-8226 leukemia) [µM] | GI50 (SK-MEL-28 melanoma) [µM] | TGI (SK-MEL-28 melanoma) [µM] | GI50 (SN12C renal) [µM] | TGI (SN12C renal) [µM] | GI50 (SW-620 colon) [µM] | TGI (SW-620 colon) [µM] | GI50 (TK-10 renal) [µM] | TGI (TK-10 renal) [µM] | GI50 (UO-31 renal) [µM] | TGI (UO-31 renal) [µM] |
| --- | --- | --- | --- | --- | --- | --- | --- | --- | --- | --- | --- | --- | --- | --- | --- | --- |
| Cc1cc(C)c(C#N)c(Sc2nc(C)c([N+](=O)[O-])c(C)c2C#N)n1 | 3.52 | 12.7 | 2.27 | 5.1 | 2.84 | 8.16 | 3.12 | 12.4 | 2.26 | 5.67 | 2.07 | 4.65 | 3.27 | 8.28 | 1.81 | 4.01 |
| COC(=O)c1c(-c2cccs2)oc(-c2cccs2)c1C(=O)OC | 32.8 | > 100 | 25 | 64 | 13.1 | 92.7 | 56.7 | > 100 | 61.6 | > 100 | 31 | > 100 | 27.9 | 82 | 19.3 | 60.1 |
| CC(=O)OC12C=C(C)C(C(C)C1)C1C(=O)N(CCN3CCCCC3)C(=O)C12 (stereo not drawn) | > 50 | > 50 | > 50 | > 50 | – | – | – | – | > 50 | > 50 | > 50 | > 50 | > 50 | > 50 | > 50 | > 50 |
| COc1cc(C2C3=C(COC3=O)N(CCO)c3cc4c(cc32)OCCO4)cc(OC)c1OC (stereo not drawn) | 0.465 | > 50 | > 50 | > 50 | 0.149 | – | > 50 | > 50 | – | > 50 | 0.226 | > 50 | – | – | 1.82 | > 50 |
| COc1cccc2cc(N(C)c3nc(C)nc4c3CCC4)ccc12 | < 0.01 | 13.1 | 12 | 27.9 | < 0.01 | 18.5 | 4.7 | 21.6 | < 0.01 | 22.4 | < 0.01 | 18.6 | 9.32 | 30.5 | < 0.0104 | 18.1 |
| CCN(CC)CCCC(C)Nc1cc(-c2cccc(OC(F)(F)F)c2)nc2ccc(N3CCCC3)cc12 (stereo not drawn) | 0.0806 | > 48.2 | 0.0679 | 32.6 | 0.0788 | 13.1 | 5.85 | 58.4 | 0.124 | 16.1 | 0.0433 | > 100 | 8.82 | > 93.1 | 0.0699 | 44.3 |
| O=C(NCC(F)(F)F)Nc1cccc(-c2cnc3cc(-c4ccc(F)cc4)ccn23)c1 | 1.51 | > 86.3 | 0.541 | 46.2 | 1.29 | 17.9 | 9.16 | > 83 | 1.54 | > 67.4 | 0.515 | 36.8 | 1.02 | 17.7 | 0.575 | 5.53 |
| COc1ccc(-c2nc(-c3nc4ccc(C)cc4[nH]3)cc3c2[nH]c2ccccc23)cc1 | 5.78 | > 100 | 5.1 | 72.5 | 1.85 | 5.31 | 5 | > 100 | 3.96 | > 100 | 6.23 | > 100 | 5.45 | > 100 | 2.99 | > 100 |
| O=C1/C(=C/c2ccc(F)cc2)CN(C(=O)CCN2CCC(=NO)CC2)C/C1=C\c1ccc(F)cc1 | 2.34 | 6.02 | 1.86 | 4.89 | 0.707 | 2.13 | 1.85 | 4.1 | 1.2 | 3.64 | 0.375 | 1.07 | 2.21 | 6.1 | 1.37 | 2.84 |
| COc1ccc(-c2cncn2-c2cc(OC)c(OC)c(OC)c2)cc1 | 0.101 | > 71.6 | < 0.0163 | – | 0.451 | 3.29 | 11.3 | > 100 | 0.527 | > 100 | 0.0585 | > 100 | 0.139 | 27.1 | 0.0936 | 18.2 |
| CSc1nc2nc3c(nc2c(=O)n1C)C(=O)c1ccccc1C3=O | 0.097 | 0.413 | 0.0406 | 0.166 | 0.255 | 1.02 | 0.188 | 0.452 | 0.157 | 0.307 | 0.252 | 0.738 | 0.766 | 2.1 | 0.236 | 0.768 |
| O=C(O)/C(Cc1cn[nH]n1)=N\O | – | > 100 | – | > 100 | – | > 100 | – | > 100 | – | > 100 | – | > 100 | – | > 100 | – | > 100 |
| CC(C)N(Cc1ccc(CN(C(=O)CCl)C(C)C)cc1)C(=O)CCl | 0.856 | 2.37 | 0.186 | 0.453 | 2.06 | 5.13 | 2.36 | 6.52 | 1.49 | 3.71 | 1.45 | 4.22 | 2.69 | 6.64 | 1.76 | 3.21 |
| O=C(CN(/C=C/C(=O)C(F)(F)F)c1ccc(Cl)cc1)c1ccc(Cl)c(Cl)c1 | 11.5 | 23.8 | 9.98 | 22.3 | 3.74 | 17 | 16.7 | 45 | 2.38 | 5.43 | 13.2 | 30.5 | 7.38 | 20.1 | 5.65 | 18.8 |
| O=C(/C=C/C=C/c1ccccc1)c1ccco1 | 22.2 | 45.8 | 12.6 | 28.6 | 1.81 | 10.7 | 17 | 31.6 | 16 | 34.9 | 13.4 | 28.6 | 16.9 | 40.1 | 10.6 | 22.6 |
